Test results published in PubChem BioAssay AID248 (DTP/NCI, 2004).
Values joined by “and” are separate entries in the source; they are usually repeats but may differ in a detail not shown here. Equal values may be shown once. Toxic doses and inconclusive results are not listed. Cut-off read from the data, not from the text of the source: active = T/C of 150% or more; inactive = T/C below 125%.

Test system: L1210 leukemia ip in BDF1 mice, survival T/C
Assay: NCI In Vivo Anticancer Drug Screen. Data for tumor model L1210 Leukemia (intraperitoneal) in B6D2F1 (BDF1) mice
Conditions: endpoint: mean survival time, higher = longer survival
In short: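 Each compound was tested against a transplantable tumor grown in mice. The endpoint was survival, with treated animals benchmarked against vehicle controls as a simple ratio.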

[1] = dose: 100.0 mg/kg/injection, schedule: Q01DX001 (ip), vehicle: other
[2] = dose: 200.0 mg/kg/injection, schedule: Q01DX001 (ip), vehicle: other
[3] = dose: 400.0 mg/kg/injection, schedule: Q01DX001 (ip), vehicle: other
[4] = dose: 100.0 mg/kg/injection, schedule: Q01DX001 (ip), vehicle: Klucel (hydroxypropylcellulose) (HPC)
[5] = dose: 100.0 mg/kg/injection, schedule: Q04DX003 (ip), vehicle: Klucel (hydroxypropylcellulose) (HPC)
[6] = dose: 200.0 mg/kg/injection, schedule: Q01DX001 (ip), vehicle: Klucel (hydroxypropylcellulose) (HPC)
[7] = dose: 200.0 mg/kg/injection, schedule: Q04DX003 (ip), vehicle: Klucel (hydroxypropylcellulose) (HPC)
[8] = dose: 400.0 mg/kg/injection, schedule: Q01DX001 (ip), vehicle: Klucel (hydroxypropylcellulose) (HPC)
[9] = dose: 400.0 mg/kg/injection, schedule: Q04DX003 (ip), vehicle: Klucel (hydroxypropylcellulose) (HPC)
[10] = dose: 100.0 mg/kg/injection, schedule: Q04DX003 (ip), vehicle: saline
[11] = dose: 200.0 mg/kg/injection, schedule: Q04DX003 (ip), vehicle: saline
[12] = dose: 400.0 mg/kg/injection, schedule: Q04DX003 (ip), vehicle: saline
[13] = dose: 100.0 mg/kg/injection, schedule: Q01DX009 (ip), vehicle: saline with Tween-80
[14] = dose: 200.0 mg/kg/injection, schedule: Q01DX009 (ip), vehicle: saline with Tween-80
[15] = dose: 400.0 mg/kg/injection, schedule: Q01DX009 (ip), vehicle: saline with Tween-80
[16] = dose: 50.0 mg/kg/injection, schedule: Q01DX001 (ip), vehicle: carboxymethylcellulose (CMC)
[17] = dose: 100.0 mg/kg/injection, schedule: Q01DX001 (ip), vehicle: carboxymethylcellulose (CMC)
[18] = dose: 200.0 mg/kg/injection, schedule: Q01DX001 (ip), vehicle: carboxymethylcellulose (CMC)
[19] = dose: 400.0 mg/kg/injection, schedule: Q01DX001 (ip), vehicle: carboxymethylcellulose (CMC)

Measured: T/C

COc1cccc(/C=N\NC(=O)CCCC(=O)N/N=C/c2cccc(OC)c2OC)c1OC
inactive: dose: 50.0 mg/kg/injection, schedule: Q01DX001 (ip), vehicle: other 91 % of control | [1] 91 % of control | [2] 91 % of control | [3] 91 % of control

Cc1cc(C)n(/N=C/c2ccc(/C=N/n3c(C)cc(C)c(C#N)c3=O)cc2)c(=O)c1C#N
inactive: [4] 91 % of control | [5] 92 % of control | [6] 87 % of control | [7] 87 % of control | [8] 94 % of control | [9] 90 % of control

CCSC(=O)n1ncc2cc(Cl)ccc21
inactive: [1] 105 % of control | [2] 97 % of control | [3] 108 % of control

CC(=O)/C(=C\N(C)C)C(=O)Nc1ccccn1
inactive: dose: 100.0 mg/kg/injection, schedule: Q01DX001 (ip), vehicle: saline with Tween-80 98 % of control | dose: 200.0 mg/kg/injection, schedule: Q01DX001 (ip), vehicle: saline with Tween-80 101 % of control | dose: 400.0 mg/kg/injection, schedule: Q01DX001 (ip), vehicle: saline with Tween-80 93 % of control

Cc1ccccc1C(=O)C(=O)c1ccccc1C
inactive: dose: 100.0 mg/kg/injection, schedule: Q01DX009 (ip), vehicle: Klucel (hydroxypropylcellulose) (HPC) 95 % of control | dose: 200.0 mg/kg/injection, schedule: Q01DX009 (ip), vehicle: Klucel (hydroxypropylcellulose) (HPC) 106 % of control | dose: 400.0 mg/kg/injection, schedule: Q01DX009 (ip), vehicle: Klucel (hydroxypropylcellulose) (HPC) 93 % of control

CC(=O)C[N+]12CN3CN(CN(C3)C1)C2
inactive: dose: 25.0 mg/kg/injection, schedule: Q01DX009 (ip), vehicle: saline 96 % of control | dose: 50.0 mg/kg/injection, schedule: Q01DX005 (ip), vehicle: saline 103 % of control | dose: 50.0 mg/kg/injection, schedule: Q01DX009 (ip), vehicle: saline 111 % of control | dose: 100.0 mg/kg/injection, schedule: Q01DX005 (ip), vehicle: saline 103 % of control | dose: 100.0 mg/kg/injection, schedule: Q01DX009 (ip), vehicle: saline 109 % of control | dose: 100.0 mg/kg/injection, schedule: Q04DX002 (ip), vehicle: saline 96 % of control | dose: 200.0 mg/kg/injection, schedule: Q04DX002 (ip), vehicle: saline 107 % of control

Cc1ccc(N=Cc2ccccc2O)cc1.[Co]
inactive: [1] 102 % of control | [2] 98 % of control | [3] 110 % of control

C[N+](C)(C)CC1C2C=CC(C2)C1CO (stereo not given)
inactive: [10] 110 % of control | [11] 107 % of control | [12] 100 % of control

CCOc1cccc2c1OC(CN1CCC3(CC1)C(=O)NCN3c1ccccc1)CO2 (stereo not given)
inactive: [5] 116 % of control | [7] 115 % of control | [9] 115 % of control

COC(=O)C1CCC2C3CCC4CC(O)CCC4(C)C3CCC12C (stereo not given)
inactive: [4] 110 % of control | [6] 100 % of control | [8] 95 % of control

CC(C)CSC(SCC(C)C)C(OC(=O)c1ccccc1)C(OC(=O)c1ccccc1)C(COC(=O)c1ccccc1)OC(=O)c1ccccc1 (stereo not given)
inactive: dose: 100.0 mg/kg/injection, schedule: Q04DX002 (ip), vehicle: Klucel (hydroxypropylcellulose) (HPC) 103 % of control | dose: 200.0 mg/kg/injection, schedule: Q04DX002 (ip), vehicle: Klucel (hydroxypropylcellulose) (HPC) 94 % of control | dose: 400.0 mg/kg/injection, schedule: Q04DX002 (ip), vehicle: Klucel (hydroxypropylcellulose) (HPC) 87 % of control

O=C(NCC1CC1)Nc1cccc2ccccc12
inactive: dose: 100.0 mg/kg/injection, schedule: Q01DX009 (ip), vehicle: other 98 % of control | dose: 200.0 mg/kg/injection, schedule: Q01DX009 (ip), vehicle: other 89 % of control | dose: 400.0 mg/kg/injection, schedule: Q01DX009 (ip), vehicle: other 92 % of control

O=C(Nc1ccccc1)OC1CC=CC1
inactive: [10] 90 % of control | [11] 92 % of control | [12] 103 % of control

O=C=Nc1ccc(C(=O)CCl)cc1
inactive: dose: 20.0 mg/kg/injection, schedule: Q01DX009 (ip), vehicle: saline with Tween-80 91 % of control | dose: 40.0 mg/kg/injection, schedule: Q01DX009 (ip), vehicle: saline with Tween-80 91 % of control | dose: 80.0 mg/kg/injection, schedule: Q01DX009 (ip), vehicle: saline with Tween-80 101 % of control | dose: 160.0 mg/kg/injection, schedule: Q01DX009 (ip), vehicle: saline with Tween-80 98 % of control

CC1(C)c2ccccc2C(C)(O)c2ccccc21
inactive: [13] 96 % of control | dose: 100.0 mg/kg/injection, schedule: Q04DX003 (ip), vehicle: other 104 % of control | [14] 93 % of control | dose: 200.0 mg/kg/injection, schedule: Q04DX003 (ip), vehicle: other 94 % of control | [15] 93 % of control | dose: 400.0 mg/kg/injection, schedule: Q04DX003 (ip), vehicle: other 107 % of control

COC(=O)C1(C)COP(=O)(O)OC1 (stereo not given) (tested in a mixture with another compound)
inactive: dose: 100.0 mg/kg/injection, schedule: Q01DX001 (ip), vehicle: saline 91 % of control and 107 % of control and 100 % of control | dose: 200.0 mg/kg/injection, schedule: Q01DX001 (ip), vehicle: saline 94 % of control and 96 % of control and 97 % of control | dose: 400.0 mg/kg/injection, schedule: Q01DX001 (ip), vehicle: saline 89 % of control and 105 % of control and 107 % of control

CC(=O)/C(=N\N=C(N)N)c1ccccc1
inactive: dose: 1.88 mg/kg/injection, schedule: Q01DX Z (ip), vehicle: saline 102 % of control | dose: 3.75 mg/kg/injection, schedule: Q01DX Z (ip), vehicle: saline 93 % of control | dose: 3.75 mg/kg/injection, schedule: Q01DX Z (oral), vehicle: other 90 % of control | dose: 7.5 mg/kg/injection, schedule: Q01DX Z (ip), vehicle: saline 98 % of control | dose: 7.5 mg/kg/injection, schedule: Q01DX Z (oral), vehicle: other 98 % of control | dose: 15.0 mg/kg/injection, schedule: Q01DX Z (oral), vehicle: other 96 % of control

Cc1cc(-n2cnc3c(Cl)ncnc32)ccc1[N+](=O)[O-]
inactive: [16] 110 % of control | [17] 101 % of control | [18] 98 % of control | [19] 112 % of control

N#CC(C#N)=Cc1ccc2ccccc2c1Br
inactive: [13] 96 % of control | [14] 94 % of control | [15] 90 % of control

CC(=O)Nc1c(Cl)cc2c(c1Cl)Cc1c-2cc(Cl)c(NC(C)=O)c1Cl
inactive: dose: 100.0 mg/kg/injection, schedule: Q04DX003 (ip), vehicle: saline with Tween-80 93 % of control | dose: 200.0 mg/kg/injection, schedule: Q04DX003 (ip), vehicle: saline with Tween-80 93 % of control | dose: 400.0 mg/kg/injection, schedule: Q04DX003 (ip), vehicle: saline with Tween-80 101 % of control

COC1=C(Nc2cccc(C)c2)C(=O)C(OC)=C(Nc2cccc(C)c2)C1=O
inactive: [16] 94 % of control | [17] 96 % of control | [18] 94 % of control | [19] 91 % of control
